Several values for one entry are separate records, joined by “and”; a condition that tells them apart may be missing. Identical values can stand only once. Entries after “also recorded” stand apart in the source; their conditions may differ.
Key:
Format in all cases: cell-based, rat
PASMCs [1] = assay: Intracellular pH (pHi) in PASMCs (BCECF-AM); conditions: for basal pHi, Baseline: before the compound
Method: (§1) The method for obtaining single PASMCs has been described previously in Shimoda L. A., et al., Am J Physiol 274: 842-853 (1998), which is hereby incorporated by reference in its entirety. Intrapulmonary arteries (200-600 μm o.d.) were isolated from male Wistar rats (250-350 g) and cleaned of connective tissue. After the lumen was gently rubbed with a cotton swab to remove the endothelial cells, the arteries were allowed to recover for 30 minutes in cold (4° C.) HBSS containing (in mM): 130 NaCl, 5 KCl, 1.2 MgCl2, 1.5 CaCl2, 10 N-[2-hydroxyethyl]piperazine-N′-[2-ethanesulfonic acid] (HEPES) and 10 glucose, with pH adjusted to 7.2 with 5 M NaOH, followed by 20 minutes in reduced-Ca^2+ (20 μM CaCl2) HBSS at room temperature. The tissue was enzymatically digested in reduced-Ca^2+ HBSS containing collagenase (type I; 1750 U/ml), papain (9.5 U/ml), bovine serum albumin (2 mg/ml) and dithiothreitol (1 mM) at 37° C. for 20 minutes. Following digestion, single smooth muscle cells were dispersed by gentle trituration with a wide-bore transfer pipette in Ca^2+-free HBSS and the cell suspension was placed on 25 mm glass cover slips. PASMCs were transiently cultured in Ham's-F-12 media supplemented with 0.5% fetal bovine serum and 1% penicillin/streptomycin for 24-48 hrs. before study.
pHi within PASMCs was monitored using the cell permeant pH sensitive dye 2′,7′-bis(carboxyethyl)-5(6)-carboxyflourescein (BCECF-AM). Cells were incubated with BCECF-AM for 60 min at 37° C. under an atmosphere of 21% O2-5% CO2. Cells were then washed with Kreb's solution for 15 min at 37° C. to remove extracellular dye and allow complete de-esterification of cytosolic dye. Cells were excited with light at 490 and 440 nm and light emitted from the cells was detected at 530 nm. The ratio of 490 to 440 nm emission was calculated and converted into pH values by performing a calibration curve after each experiment. PASMCs were subjected to a high K^+ buffer containing 10 μM nigericin, which allowed the cell to adopt the pH of the high K^+ buffer. Two high K^+/nigericin buffers were used to set pH to 6.5 or 7.5, pHi was estimated from in situ calibration after each experiment. Cells were perfused with a solution containing (in mM): 105 KCl, 1 MgCl2, 1.5 CaCl2, 10 glucose, 20 HEPES-Tris and 0.01 nigericin to allow pHi to equilibrate to external pH as in Quinn D. A., et al., Am J Respir Cell Mol Biol 5: 586-591 (1991), which is hereby incorporated by reference in its entirety. A two point calibration was created from fluorescence measured as pHi was adjusted with KOH from 6.5 to 7.5. Intracellular H^+ ion concentration ([H^+]i) was determined from pHi using the formula: pHi=−log ([H^+]i).

PASMCs [2] = assay: Hypoxia-induced increase in [Ca2+]i in PASMCs (4% O2); conditions: 10-100 μM
Method: as §1, with “Intrapulmonary” for “The method for obtaining single PASMCs has been described previously in Shimoda L. A., et al., Am J Physiol 274: 842-853 (1998), which is hereby incorporated by reference in its entirety. Intrapulmonary”, “The tissue was enzymatically digested in reduced-Ca^2+ HBSS containing collagenase (type I; 1750 U/ml), papain (9.5 U/ml), bovine serum albumin (2 mg/ml) and dithiothreitol (1 mM) at 37° C. for 20 minutes.” left out
(§2) Acute hypoxia increases intracellular [Ca^2+] in pulmonary arterial smooth muscle by enhancing capacitative Ca^2+ entry. […] Ratiometric measurement of fluorescence from the dye was performed on a workstation (Intracellular Imaging Inc, Cincinnati, Ohio) consisting of a Nikon TSE 100 Ellipse inverted microscope with epi-fluorescence attachments. The light beam from a xenon arc lamp was filtered at 340 and 380 nm, and focused onto the PASMCS under examination via a 20× fluorescence objective (Super Fluor 20, Nikon). Light emitted from the cell at 510 nm was returned through the objective and detected by a cooled CCD imaging camera. An electronic shutter (Sutter Instruments) was used to minimize photobleaching of dye. Protocols were executed and data collected on-line with InCyte software (Intracellular Imaging Inc). [Ca^2+]i was estimated from in vitro calibration solutions.

PASMCs [3] = assay: Basal intracellular Ca2+ concentration in PASMCs (Fura-2); conditions: for basal [Ca^2+]i, Treatment: 100 μM, after 10 min of perfusion; for effect on resting [Ca^2+]i: 10-100 μM; for basal [Ca^2+]i, Baseline: before perfusion with the compound
Method: as §1, with “Intrapulmonary” for “The method for obtaining single PASMCs has been described previously in Shimoda L. A., et al., Am J Physiol 274: 842-853 (1998), which is hereby incorporated by reference in its entirety. Intrapulmonary”, “The tissue was enzymatically digested in reduced-Ca^2+ HBSS containing collagenase (type I; 1750 U/ml), papain (9.5 U/ml), bovine serum albumin (2 mg/ml) and dithiothreitol (1 mM) at 37° C. for 20 minutes.” left out
as §2

Row | Structure (SMILES) | effect on basal pHi (PASMCs [1]; 100 μM) | effect of hypoxia on pHi in treated cells (PASMCs [1]; 100 μM, 4% O2) | pHi after hypoxia in pretreated PASMCs (PASMCs [1]; 100 μM, 4% O2) | basal pHi, Baseline (PASMCs [1]) | effect on hypoxia-induced increase in [Ca^2+]i (PASMCs [2]) | basal [Ca^2+]i, Treatment (PASMCs [3]) | effect on resting [Ca^2+]i (PASMCs [3]) | basal [Ca^2+]i, Baseline (PASMCs [3]) [nM] | basal pHi, Treatment (PASMCs [1]; 100 μM) | effect on hypoxia-induced increase in [Ca^2+]i (PASMCs [2]; listed as EF)
1 | CC(=O)Nc1nnc(S(N)(=O)=O)s1 [AZ, acetazolamide] | small decrease | no effect | 7.24±0.03 | 7.26±0.02 | almost complete blockade; also recorded: significant reduction | 150.0 ± 9.6 nM and 155.0 ± 9.6 nM | no effect | 159.6 ± 10.8 | – | –
2 | CCOc1ccc2nc(S(N)(=O)=O)sc2c1 [EZ, ethoxzolamide] | significant decrease | – | – | 7.28 ± 0.04 | no effect | 122.5 ± 6.3 nM | neither EZ nor BZ altered | 125.5 ± 7.1 | 7.19 ± 0.04 | neither EF (FIG. 5) nor BZ (FIG. 6) had a significant effect
3 | NS(=O)(=O)c1nnc(NS(=O)(=O)c2ccccc2)s1 [BZ, benzolamide] | significant decrease | – | – | 7.31 ± 0.02 | no effect; also recorded: neither EF (FIG. 5) nor BZ (FIG. 6) had a significant effect | 120.7 ± 7.7 nM | neither EZ nor BZ altered | 113.4 ± 7.4 | 7.25 ± 0.03 | –
